Structures can show the parent of a compound that is named as a salt.

In series [1] the test system is REC1_2 (MspI AATC 108) mRNA. The experiment in a line: quantified RT-PCR, Rec1_2. Format: in vivo, rabbit. The following applies: for Relative Abundance Rec1_2, 500 pg F: hypercholesterolemic plus lercanidipine racemate, eight weeks, H2 (normocholesterolemic)=1.0. How it is done:
(§1) Nineteen of the isolated DST clones were further validated using RT-PCR analyses; the data are presented in FIGS. 6-24 and in Tables 5-23, below. For each DST examined, the optimal annealing temperature and reagent conditions were determined for the corresponding set of primers (see Table 25) based on results from a preliminary experiment. In eight separate reactions, each set of primers was assayed to find the optimal conditions by adjusting the following four parameters: primer concentration, dNTP concentration, MgCl2 concentration, and number of Taq polymerase units. Once optimal conditions were determined, each DST was run in duplicate multiple simultaneous reactions which usually included at least four dilutions of template (cDNA library), plus control reactions lacking template, and six sequential data points for numbers of cycles.
(§2) Reactions were performed using “Hot Start” PCR with the Clontech TaqStart antibody system (Cat. #5400-1). Each reaction contained 1 ml of the cDNA library dilution as template, determined amounts of AmpliTaq DNA polymerase (cat. #N808-0156), MgCl2, dNTPs (GibcoBRL cat. #10297-018), primer, and Clontech TaqStart Antibody in a 20 ml final reaction volume using 10×Taq buffer II (without MgCl2). Typically, a master mix containing all components except the template was prepared and aliquoted. Various templates were then added to these master mix samples and 20 ml volumes were subsequently dispensed into individual reaction tubes. At various times during the PCR run, tubes were removed sequentially on a predetermined schedule in order to quantitate expression of the target DST over a “window” of cycle times. After amplification, the samples were quantified via fluorimetry.
(§3) PCR was performed at annealing temperatures that were five degrees above the average melting temperature of each primer pair. For primers greater than 10 bases (in a 0.05M salt solution), melting temperature was calculated using the following formula: Tm=59.9+41[% GC]−[675/Primer Length], where %GC is the decimal value. Following determination of the average melting temperature of the primer pair, the annealing temperature was determined by adding five degrees to the average melting temperature. PCR was performed using the following program: 1) 95 degrees Celsius, 3 minutes; 2) 95 degrees Celsius, 30 seconds; 3) TM+5 degrees Celsius, 30 seconds; 4) 72 degrees Celsius, for a time dependent on target length at 16 bp/second; 5) repeat steps 2-4 33 more cycles; 6) 72 degrees Celsius, 3 minutes; 7) 14 degrees Celsius, forever.
(§4) Following temperature cycling, 2 ml of the PCR reaction was added to 140 ml of a 1:280 dilution of PicoGreen (Molecular Probes cat. #P-11495 (10×100 ml)) in TE pH 7.5 in a 96-well Costar UV microtiter plate (Fisher cat. #07-200623). The samples were mixed gently for 1.5 minutes and allowed to equilibrate at room temperature in the dark for 15 minutes. The concentration of the PCR products was quantified by fluorimetry using a PerSeptive Biosystems CytoFluor series 4000 multi-well plate reader.
(§5) Background fluorescence was determined by using duplicate control samples that were cycled with all reaction components except the template. The mean value from these duplicate background control samples was subtracted from the corresponding experimental values prior to analyzing results. The sensitivity of the PicoGreen dsDNA assay is reported to be 250 pg/ml (50 pg dsDNA in a […] assay volume) using a fluorescence microplate reader such as was used in these measurements. […]

A further series concerns Rec1_7 (CACA 282) mRNA. The experiment in a line: quantified RT-PCR, Rec1_7. Format: in vivo, rabbit. The following applies: for Relative Abundance Rec1_7, 100 pg F: hypercholesterolemic plus lercanidipine racemate, eight weeks, H2 (normocholesterolemic)=1.0. How it is done:
as §1, §2, §3, §4, §5

A further series concerns REC1_5 (AGTG 184) mRNA. Nature of the series: quantified RT-PCR, Rec1_5. The format is in vivo, rabbit. The following applies: for Relative Abundance Rec1_5, 100 pg F: hypercholesterolemic plus lercanidipine racemate, eight weeks, H2 (normocholesterolemic)=1.0. The procedure: as §1, §2, §3, §4, §5
The nature of series [2]: arterial blood pressure in treated rabbits. Format: in vivo. Conditions: doses utilized (3 mg/kg/week subcutaneously). How it is done:
The daily doses of cholesterol (1.6 g) were given in the morning (at 08.00 hours) each mixed in 20 g of food pellets. Normal chow, up to 150 g, was added after all the cholesterol-rich diet was eaten (usually within 30 minutes). The hydrochloride salt of lercanidipine or (R)-lercanidipine (Recordati, Milano, Italy) was administered subcutaneously as a solution in 50% propylene glycol. […] Animals had free access to water and were kept in a 12 hour light-dark cycle. Blood was drawn from the central ear artery at day 29 after treatment, started in order to monitor the lercanidipine plasma level at 24 hour post-dose.

For series [3] the following is noted: in vivo studies (Soma 1998); cited from earlier work.
Another series has as its system Rec1_24 (CCGG 232) mRNA. The experiment in a line: quantified RT-PCR, Rec1_24. Format: in vivo, rabbit. Conditions: for Relative Abundance Rec1_24, 100 pg D: hypercholesterolemic plus lercanidipine R (−), eight weeks, H2 (normocholesterolemic)=1.0. How it is done: as §1, §2, §3, §4
Background fluorescence was determined by using duplicate control samples that were cycled with all reaction components except the template. The mean value from these duplicate background control samples was subtracted from the corresponding experimental values prior to analyzing results. The sensitivity of the PicoGreen dsDNA assay is reported to be 250 pg/ml (50 pg dsDNA in a […] assay volume) using a fluorescence microplate reader such as was used in these measurements.
FIG. 23 is a graphical representation of the results of RT-PCR using 100 pg of clone REC1—24 template, in which the amount of PCR product (measured in arbitrary fluorescence units) is plotted against number of cycles, where polyA enriched mRNA was extracted from aortas of rabbits that were normocholesterolemic (filled diamonds, “H2”) and hypercholesterolemic plus lercanidipine R (−), eight weeks (filled squares, “D”).

Setting [4] is: hypercholesterolemic animals receiving lercanidipine racemate.

On to `COC(=O)C1=C(C)NC(C)=C(C(=O)OC(C)(C)CN(C)CCC(c2ccccc2)c2ccccc2)C1c1cccc([N+](=O)[O-])c1` (racemic) [lercanidipine, lercanidipine hydrochloride], for which the “Relative Abundance Rec1_2, 500 pg F” value in series [1] (cycle 22) is 2.7; in series [1] (cycle 24), 0.6; in series [1] (cycle 26), 5.0; in series [1] (cycle 28) it was 6.6; in series [1] (cycle 30), 2.5; in series [1] (cycle 32), 1.6. The “expression of Rec1_2 at 8 weeks (RT-PCR study), in words” value in series [1] (setting [4]) is on record as “elevated”. Besides, the “Relative Abundance Rec1_7, 100 pg F” value was 0.00 in the series on Rec1_7 (CACA 282) mRNA (cycle 24); 0.00 in the series with Rec1_7 (CACA 282) mRNA (cycle 26); 0.06 in the series on Rec1_7 (CACA 282) mRNA (cycle 28); 0.10 with Rec1_7 (CACA 282) mRNA (cycle 30); 0.3 with Rec1_7 (CACA 282) mRNA (cycle 32); 0.5 with Rec1_7 (CACA 282) mRNA (cycle 34). The “expression of Rec1_7 at 8 weeks (RT-PCR study), in words” value with Rec1_7 (CACA 282) mRNA (setting [4]) is on record as “down-regulated”. For the same compound, the “Relative Abundance Rec1_5, 100 pg F” value is recorded as 512.5 with REC1_5 (AGTG 184) mRNA (cycle 24); 805.0 in the series on REC1_5 (AGTG 184) mRNA (cycle 26); 0.2 in the series on REC1_5 (AGTG 184) mRNA (cycle 28); 0.6 with REC1_5 (AGTG 184) mRNA (cycle 30); 1.1 in the series on REC1_5 (AGTG 184) mRNA (cycle 32); 1.0 with REC1_5 (AGTG 184) mRNA (cycle 34). Besides, the “expression of Rec1_5 at 8 weeks (RT-PCR study), in words” value with REC1_5 (AGTG 184) mRNA (hypercholesterolemic animals receiving lercanidipine racemate, at 28-30 cycles) was “decreased”. Also, in series [2], the “effect on arterial blood pressure” value was “did not affect”. For the same compound, the “aortic fatty lesion deposition” value in series [3] was “inhibit”.

For `COC(=O)C1=C(C)NC(C)=C(C(=O)OC(C)(C)CN(C)CCC(c2ccccc2)c2ccccc2)[C@@H]1c1cccc([N+](=O)[O-])c1.Cl` (single isomer, unassigned) [(R)-lercanidipine], the “Relative Abundance Rec1_24, 100 pg D” value with Rec1_24 (CCGG 232) mRNA (cycle 24) worked out at 0.3; in the series on Rec1_24 (CCGG 232) mRNA (cycle 26), 0.5; in the series with Rec1_24 (CCGG 232) mRNA (cycle 28), 0.7; in the series on Rec1_24 (CCGG 232) mRNA (cycle 30), 0.9; in the series on Rec1_24 (CCGG 232) mRNA (cycle 32), 0.9; with Rec1_24 (CCGG 232) mRNA (cycle 34) it was 1.1. In the series with Rec1_24 (CCGG 232) mRNA (hypercholesterolemic animals receiving lercanidipine R (−) compared to normocholesterolemic animals), the “expression of Rec1_24 at 8 weeks (RT-PCR study), in words” value was “generally somewhat decreased”.
